# Several values for one entry are separate records, joined by “and”; a condition that tells them apart may be missing. Equal values may be shown once. Entries after “also recorded” stand apart in the source; their conditions may differ. Read-outs that look alike come from different tables or passages of the source.
# Key:
# [1] = Pharmacokinetics after repeated administration (Q7D×3) to dogs; type: in vivo; conditions: dog; for clearance / half-life / AUC / Cmax / Vd: TH302 in dogs; for half-life: read-out: Half-Life (converted); for Cmax: read-out: Cmax; for Vd: read-out: Vss
# Excerpt: These changes were reversible.
# [2] = tested on: PC-3 human prostate tumor; test: GFP PC3 prostate orthotopic model; type: in vivo, mice
# [3] = Pharmacokinetics after repeated administration (Q7D×3) to rats; type: in vivo; conditions: rat, plasma; for clearance / AUC / Cmax / half-life / Vd: iv, TH302 in rats; for AUC: read-out: AUC; for Cmax: read-out: Cmax; for half-life: read-out: Half-Life (converted); for Vd: read-out: Vss
# Description: Each rat received a 30 minute infusion once a week for three weeks (Q7D×3).
# Br-IPM being capable of reacting with water and a number of other nucleophiles, for HPLC analysis of Br-IPM, the plasma obtained was frozen and treated with NaF and potassium oxalate.
# [4] = Pharmacokinetics in CD-1 mice; type: in vivo; conditions: male, CD-1, mouse, plasma, ip, 50 mg/kg, 50 mg/kg i.p., read-out: terminal half-lives (t1/2)
# Description: (§1) Pharmacokinetic studies were performed in male CD-1 (50 mg/kg i.p. or orally (p.o.)) or female nude mice (50 mg/kg i.v. or i.p.), male Sprague-Dawley rats (1, 5, 20 and 50 mg/kg i.v. and 100 mg/kg, p.o.), beagle dogs (20 mg/kg, i.v.) and cynomologus monkeys (20 mg/kg i.v.). Plasma TH302 concentrations were analyzed using a LC/MS method and the pharmacokinetic parameters computed using a noncompartmental method. Interspecies scaling was performed according to standard methods.
# [5] = Pharmacokinetics in cynomolgus monkeys (20 mg/kg i.v.); type: in vivo; conditions: for Vd: read-out: Vss
# Description: as §1
# Individual and mean pharmacokinetic parameters of TH302 following intravenous administration at a dose of 20 mg/kg (N=3) is shown in Table 7.
# [6] = Stability of ethanol formulation of TH302 by HPLC; type: physicochemical; conditions: for TH302 (%): 40 μg/mL in ethanol
# Description: A liquid formulation of TH302 in ethanol was prepared containing 1 mg TH302 in 1 mL of the solution. Aliquots were withdrawn from this formulation and diluted with ethanol to yield a 40 μg/mL formulation of TH302 in ethanol, which was incubated at 20° C. and 37° C. and the stability analyzed by high performance liquid chromatography (HPLC). The HPLC employed the following components and conditions: column (Alltech, Alltima C18, 50×4.6, 3 μm), mobile phase (water and acetonitrile), flow rate 0.8 mL/min, injection volume (10 μL), detection (UV detection at 325 nm and 254 nm), and column temperature (room temperature). The composition of the mobile phase was as tabulated below: […]
# [7] = tested on: H460 xenograft tumor; test: H460 xenograft, TH302 in combination with X-ray radiation; type: in vivo, mice; conditions: X-ray 1.2 Gy/day for 5 days with TH302 ip 75 mg/kg per day for 5 days, 30 min after each radiation dose; 75 mg/kg/day
# Description: H460 xenograft tumor bearing mice were treated with X-ray radiation (one cycle of 1.2 Gy/day for 5 days) alone and in combination with TH302 (administered ip, 75 mg/kg per day for 5 consecutive days 30 min after each radiation dose). […] The oxygen radicals involved in killing tumor cells, and which are generated by irradiation of oxygen e.g. under normoxic conditions, can not form efficiently under hypoxic conditions.
# [8] = Pharmacokinetics in nude mice; type: in vivo; conditions: female, mouse, plasma
# [9] = Pharmacokinetics in beagle dogs (20 mg/kg i.v.); type: in vivo; conditions: dog, plasma, iv
# Description: as §1
# [10] = in vivo, 16 mg/kg Q7D×3, Day 15
# [11] = plasma, intravenous, 4 mg/kg Q7D×3, Day 15
# [12] = plasma, intravenous, 8 mg/kg Q7D×3, Day 15
# [13] = plasma, intravenous, 16 mg/kg Q7D×3, Day 15
# [14] = cynomolgus monkey, plasma, iv, 20 mg/kg, cynomolgus monkeys, Mean (N=3)
# [15] = cynomolgus monkey, plasma, iv, 20 mg/kg, monkeys
# [16] = cynomolgus monkeys, individual animals, 20 mg/kg
smiles,measurement,setting,value
Cn1c(COP(=O)(NCCBr)NCCBr)cnc1[N+](=O)[O-] [TH302],clearance,"[1]; in vivo, 4 mg/kg Q7D×3, Day 15",80.7 mL/min/kg
same,half-life,"[1]; in vivo, 4 mg/kg Q7D×3, Day 15",16.3 min
same,clearance,"[1]; in vivo, 8 mg/kg Q7D×3, Day 15",72.5 mL/min/kg
same,half-life,"[1]; in vivo, 8 mg/kg Q7D×3, Day 15",15.2 min
same,AUC,[1]; [10],4260 ng·h/mL
same,clearance,[1]; [10],63.7 mL/min/kg
same,half-life,[1]; [10],17 min
same,AUC,[1]; [11],853 ng·h/mL
same,Cmax,[1]; [11],1580 ng/mL
same,Vd,[1]; [11],2.1 L/kg
same,AUC,[1]; [12],1910 ng·h/mL
same,Cmax,[1]; [12],3650 ng/mL
same,Vd,[1]; [12],1.78 L/kg
same,Cmax,[1]; [13],7100 ng/mL
same,Vd,[1]; [13],1.93 L/kg
same,AUC at 15 day,"[1]; plasma, intravenous, dogs, 8 mg/kg dose of TH302, read-out: drug exposure (AUC of TH302)",~1910 ng·h/mL
same,reduction in tumor volume,[2]; compared to final measurements in the vehicle group (day 31),84%
same,tumor growth delay (TGD),"[2]; single agent, Taxotere 12 mg/kg once a week for two weeks",16 days
same,AUC at 15 day,"[3]; intravenous, rats, 25 mg/kg dose of TH302, read-out: drug exposure, AUC of TH302",~2110 ng·h/mL
same,clearance,"[3]; 12.5 mg/kg Q7D×3, Day 15",293 mL/min/kg
same,AUC,"[3]; 12.5 mg/kg Q7D×3, Day 15",699 ng·h/mL
same,Cmax,"[3]; 12.5 mg/kg Q7D×3, Day 15",1210 ng/mL
same,half-life,"[3]; 12.5 mg/kg Q7D×3, Day 15",16 min
same,Vd,"[3]; 12.5 mg/kg Q7D×3, Day 15",8.71 L/kg
same,clearance,"[3]; 25 mg/kg Q7D×3, Day 15",275 mL/min/kg
same,AUC,"[3]; 25 mg/kg Q7D×3, Day 15",2110 ng·h/mL
same,Cmax,"[3]; 25 mg/kg Q7D×3, Day 15",3640 ng/mL
same,half-life,"[3]; 25 mg/kg Q7D×3, Day 15",18.7 min
same,Vd,"[3]; 25 mg/kg Q7D×3, Day 15",8.28 L/kg
same,clearance,"[3]; 50 mg/kg Q7D×3, Day 15",197 mL/min/kg
same,AUC,"[3]; 50 mg/kg Q7D×3, Day 15",3250 ng·h/mL
same,Cmax,"[3]; 50 mg/kg Q7D×3, Day 15",5720 ng/mL
same,half-life,"[3]; 50 mg/kg Q7D×3, Day 15",20.8 min
same,Vd,"[3]; 50 mg/kg Q7D×3, Day 15",5.84 L/kg
same,half-life,[4],7.9 min
same,AUC(0-t),[5]; [14],3140 ng·h/mL
same,clearance,[5]; [14],128 mL/min/kg
same,Cmax,"[5]; cynomolgus monkey, plasma, iv, 20 mg/kg, cynomolgus monkeys, Mean (N=3), read-out: Cmax",20700 ng/mL
same,MRT,"[5]; cynomolgus monkey, plasma, iv, 20 mg/kg, cynomolgus monkeys, Mean (N=3), read-out: MRT",19.8 min
same,Vd,[5]; [14],2.92 L/kg
same,Cmax,"[5]; cynomolgus monkey, plasma, iv, 20 mg/kg, cynomolgus monkeys, individual animals, read-out: Cmax",15900 ng/mL
same,MRT,"[5]; cynomolgus monkey, plasma, iv, 20 mg/kg, cynomolgus monkeys, individual animals, read-out: MRT",28.6 min
same,clearance,[5]; [15],128 mL/min/kg
same,Vd,[5]; [15],2.92 L/kg
same,Tmax,"[5]; cynomolgus monkey, plasma, iv, cynomolgus monkeys, individual animals",1.98 min
same,half-life,"[5]; cynomolgus monkey, plasma, iv, monkeys, read-out: Plasma t1/2",24.9 min
same,Vβ,"[5]; cynomolgus monkeys, Mean (N=3)",6.17 L/kg
same,half-life,"[5]; cynomolgus monkeys, Mean (N=3)",24.9 min
same,AUClast,[5]; [16],1519 ng·h/mL and 3961 ng·h/mL and 3932 ng·h/mL
same,Cl,[5]; [16],217 mL/min/kg and 81.7 mL/min/kg and 84.5 mL/min/kg
same,Cmax,[5]; [16],28500 ng/mL and 17600 ng/mL
same,MRT,[5]; [16],14.7 min and 16.1 min
same,Vss,[5]; [16],6.18 L/kg and 1.20 L/kg and 1.36 L/kg
same,Vβ,[5]; [16],15.5 L/kg and 1.37 L/kg and 1.65 L/kg
same,half-life,[5]; [16],49.6 min and 11.6 min and 13.6 min
same,TH302 (%),"[6]; 20° C., incubated 0 days",96.97%
same,TH302 (%),"[6]; 20° C., incubated 3 days",96.98%
same,TH302 (%),"[6]; 20° C., incubated 5 days",96.91%
same,TH302 (%),"[6]; 20° C., incubated 7 days",96.96%
same,TH302 (%),"[6]; 20° C., incubated 10 days",96.95%
same,TH302 (%),"[6]; 20° C., incubated 14 days",96.98%
same,TH302 (%),"[6]; 37° C., incubated 0 days",96.97%
same,TH302 (%),"[6]; 37° C., incubated 3 days",96.95%
same,TH302 (%),"[6]; 37° C., incubated 5 days",96.98%
same,TH302 (%),"[6]; 37° C., incubated 7 days",96.98%
same,TH302 (%),"[6]; 37° C., incubated 10 days",96.30%
same,TH302 (%),"[6]; 37° C., incubated 14 days",96.01%
same,TH302 (%),"[6]; 37° C., incubated 24 days",95.46%
same,stability of solution in ethyl alcohol,"[6]; 20° C., under the test conditions",stable
same,effect on anti tumor efficacy of radiation,[7],enhances the anti cancer effect of X-ray; also recorded: enhances the anti tumor efficacy of radiation
same,Vd,"[8]; intravenous, 50 mg/kg, read-out: apparent steady-state volume of distribution (Vss)",0.542 L/kg
same,clearance,"[8]; intravenous, 50 mg/kg, read-out: total body clearance (Cl) (converted)",72.8 mL/min/kg
same,half-life,"[8]; iv, 50 mg/kg i.v.",8.2 min
same,half-life,"[8]; po, 50 mg/kg p.o. (so in the source)",9.7 min
same,half-life,[9]; read-out: Mean t1/2,49.2 min
same,clearance,[9]; read-out: mean Cl (converted),54.7 mL/min/kg
same,Vd,[9]; read-out: mean Vss,1.98 L/kg

# Source: patent publication US8552048B2, “Phosphoramidate alkylator prodrugs for the treatment of cancer” (Threshold Pharmaceuticals, Inc., priority 2006, dated 2013)
